Measurements reported in ChEMBL document CHEMBL3822442, “Synthesis and Pharmacological Characterization of Novel Glucagon-like Peptide-2 (GLP-2) Analogues with Low Systemic Clearance” (J Med Chem, 2016).

Legend:
[1] = molecular target: T1, Glucagon-like peptide 2 receptor (Homo sapiens, UniProt O95838); assay: Agonist activity at human GLP2R expressed in HEK293 cells after 5 hrs by luciferase reporter gene assay; type: cell-based
T1 sequence (O95838 whole entry): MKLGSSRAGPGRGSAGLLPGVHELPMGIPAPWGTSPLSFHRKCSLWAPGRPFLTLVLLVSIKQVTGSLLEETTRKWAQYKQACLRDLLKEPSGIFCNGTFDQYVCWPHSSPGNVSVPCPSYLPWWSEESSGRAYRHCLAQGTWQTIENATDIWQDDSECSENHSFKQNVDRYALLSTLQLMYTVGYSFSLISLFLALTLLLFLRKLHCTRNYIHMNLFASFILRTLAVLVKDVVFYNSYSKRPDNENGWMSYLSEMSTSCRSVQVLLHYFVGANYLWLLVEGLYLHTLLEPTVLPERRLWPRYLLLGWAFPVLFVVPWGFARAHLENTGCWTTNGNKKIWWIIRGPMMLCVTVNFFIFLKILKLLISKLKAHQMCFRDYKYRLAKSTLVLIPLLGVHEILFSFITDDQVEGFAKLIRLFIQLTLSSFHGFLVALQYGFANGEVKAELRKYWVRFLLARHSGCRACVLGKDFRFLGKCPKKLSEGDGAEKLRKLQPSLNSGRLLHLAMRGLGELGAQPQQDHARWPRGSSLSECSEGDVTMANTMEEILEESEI

[2] = molecular target: Glucagon-like peptide 1 receptor (Homo sapiens, UniProt P43220); assay: Agonist activity at human GLP1R expressed in HEK293 cells after 5 hrs by luciferase reporter gene assay; type: cell-based
HEK293 = assay: Selectivity ratio of EC50 for human GLP1R expressed in HEK293 cells to EC50 for human GLP2R expressed in HEK293; type: cell-based
[3] = Systemic clearance in Sprague-Dawley rat at 0.2 mg/kg, iv through cassette dosing measured up to 300 mins by LC/MS/MS analysis; type: ADME, organism-based; settings: in vivo

Sequence of Glucagon-like peptide 1 receptor (P43220 whole entry): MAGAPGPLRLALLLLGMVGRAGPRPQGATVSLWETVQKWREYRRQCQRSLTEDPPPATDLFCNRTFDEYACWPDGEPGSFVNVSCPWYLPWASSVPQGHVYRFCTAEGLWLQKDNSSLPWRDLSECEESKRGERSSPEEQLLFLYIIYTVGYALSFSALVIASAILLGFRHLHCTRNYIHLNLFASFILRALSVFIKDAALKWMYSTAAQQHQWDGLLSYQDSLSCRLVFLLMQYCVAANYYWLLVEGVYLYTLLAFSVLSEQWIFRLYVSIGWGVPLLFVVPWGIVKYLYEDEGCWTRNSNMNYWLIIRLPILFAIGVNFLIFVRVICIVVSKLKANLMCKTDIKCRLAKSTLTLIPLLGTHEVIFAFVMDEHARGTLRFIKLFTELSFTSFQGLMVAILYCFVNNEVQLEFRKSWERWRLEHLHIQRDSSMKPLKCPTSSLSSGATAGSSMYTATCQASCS

| EC50 [1] | EC50 [2] | clearance [3] | SMILES | Ratio EC50 (HEK293) |
| --- | --- | --- | --- | --- |
| 0.09 nM | > 1000 nM | 0.2 mL/min/kg | CCCCC(NC(=O)[C@H](CCC(=O)O)NC(=O)[C@H](CC(=O)O)NC(=O)[C@H](CO)NC(=O)[C@H](Cc1ccccc1)NC(=O)[C@H](CO)NC(=O)CNC(=O)[C@H](CC(=O)O)NC(=O)CNC(=O)[C@@H](N)Cc1cnc[nH]1)C(=O)N[C@H](Cc1cccc(Cl)c1)C(=O)N[C@H](C(=O)N[C@H](C(=O)N[C@@H](CC(C)C)C(=O)N[C@@H](CC(=O)O)C(=O)N[C@@H](CC(C)C)C(=O)N[C@@H](CC(C)C)C(=O)N[C@@H](C)C(=O)N[C@@H](C)C(=O)N[C@@H](CCCNC(=N)N)C(=O)N[C@@H](CC(=O)O)C(=O)N[C@@H](Cc1ccccc1)C(=O)N[C@H](C(=O)N[C@@H](CC(N)=O)C(=O)N[C@@H](Cc1c[nH]c2ccccc12)C(=O)N[C@@H](CC(C)C)C(=O)N[C@H](C(=O)N[C@@H](CCC(N)=O)C(=O)N[C@H](C(=O)N[C@@H](CCCCN)C(=O)N[C@H](C(=O)N[C@H](C(=O)N[C@@H](CC(=O)O)C(N)=O)[C@@H](C)O)[C@@H](C)CC)[C@@H](C)O)[C@@H](C)CC)[C@@H](C)CC)[C@@H](C)CC)[C@@H](C)O (some centres not stated) | > 11000 |
| 0.08 nM | > 1000 nM | 0.33 mL/min/kg | CCCCC(NC(=O)[C@H](CCC(=O)O)NC(=O)[C@H](CC(=O)O)NC(=O)[C@H](CO)NC(=O)[C@H](Cc1ccccc1)NC(=O)[C@H](CO)NC(=O)CNC(=O)[C@H](CC(=O)O)NC(=O)CNC(=O)[C@@H](N)Cc1cnc[nH]1)C(=O)N[C@H](Cc1cccs1)C(=O)N[C@H](C(=O)N[C@H](C(=O)N[C@@H](CC(C)C)C(=O)N[C@@H](CC(=O)O)C(=O)N[C@@H](CC(C)C)C(=O)N[C@@H](CC(C)C)C(=O)N[C@@H](C)C(=O)N[C@@H](C)C(=O)N[C@@H](CCCNC(=N)N)C(=O)N[C@@H](CC(=O)O)C(=O)N[C@@H](Cc1ccccc1)C(=O)N[C@H](C(=O)N[C@@H](CC(N)=O)C(=O)N[C@@H](Cc1c[nH]c2ccccc12)C(=O)N[C@@H](CC(C)C)C(=O)N[C@H](C(=O)N[C@@H](CCC(N)=O)C(=O)N[C@H](C(=O)N[C@@H](CCCCN)C(N)=O)[C@@H](C)O)[C@@H](C)CC)[C@@H](C)CC)[C@@H](C)CC)[C@@H](C)O (some centres not stated) | > 12000 |
| 0.05 nM | > 1000 nM | 0.28 mL/min/kg | CCCCC(NC(=O)[C@H](CCC(=O)O)NC(=O)[C@H](CC(=O)O)NC(=O)[C@H](CO)NC(=O)[C@H](Cc1ccccc1)NC(=O)[C@H](CO)NC(=O)CNC(=O)[C@H](CC(=O)O)NC(=O)CNC(=O)[C@@H](N)Cc1cnc[nH]1)C(=O)N[C@H](Cc1cccs1)C(=O)N[C@H](C(=O)N[C@H](C(=O)N[C@@H](CC(C)C)C(=O)N[C@@H](CC(=O)O)C(=O)N[C@@H](CC(C)C)C(=O)N[C@@H](CC(C)C)C(=O)N[C@@H](C)C(=O)N[C@H](C(=O)N[C@@H](CCCNC(=N)N)C(=O)N[C@@H](CC(=O)O)C(=O)N[C@@H](Cc1ccccc1)C(=O)N[C@H](C(=O)N[C@@H](CC(N)=O)C(=O)N[C@@H](Cc1c[nH]c2ccccc12)C(=O)N[C@@H](CC(C)C)C(=O)N[C@H](C(=O)N[C@@H](CCC(N)=O)C(=O)N[C@H](C(=O)N[C@@H](CCCCN)C(=O)N[C@H](C(=O)N[C@H](C(=O)N[C@@H](CC(=O)O)C(N)=O)[C@@H](C)O)[C@@H](C)CC)[C@@H](C)O)[C@@H](C)CC)[C@@H](C)CC)[C@@H](C)O)[C@@H](C)CC)[C@@H](C)O (some centres not stated) | > 20000 |
